Columns and labels:
[1] = tested on: AT (DNA, duplex) ATATATATATAT; experiment: luminescence titration 750 nm, Bard fit; details: Na+ (20 mM sodium phosphate), 20 mM sodium phosphate pH 7.0, 298 K, per base
[2] = tested on: AT (DNA, duplex) ATATATATATAT; experiment: UV-visible absorbance titration 415 nm, Bard fit; details: Na+ (20 mM sodium phosphate), 20 mM sodium phosphate pH 7.0, 298 K, per base
[3] = tested on: AT (DNA, duplex) ATATATATATAT; experiment: UV-visible absorbance titration 355 nm, Bard fit; details: Na+ (20 mM sodium phosphate), 20 mM sodium phosphate pH 7.0, 298 K, per base
[4] = tested on: (5′-CCGGTACCGG)2 (TA step) (DNA, duplex) CCGGTACCGG; experiment: UV-visible absorbance titration 355 nm, Bard fit; details: Na+ (20 mM sodium phosphate); 20 mM sodium phosphate pH 7.0, 298 K; site size s 3.17 (±0.07); per base
[5] = tested on: (5′-CCGGATCCGG)2 (AT step) (DNA, duplex) CCGGATCCGG; experiment: luminescence titration 750 nm, Bard fit; details: Na+ (20 mM sodium phosphate); 20 mM sodium phosphate pH 7.0, 298 K; s 5.5; caption says luminescence 750 nm, column head 415 nm absorbance; per base
[6] = tested on: (5′-CCGGATCCGG)2 (AT step) (DNA, duplex) CCGGATCCGG; experiment: UV-visible absorbance titration 355 nm, Bard fit; details: Na+ (20 mM sodium phosphate); 20 mM sodium phosphate pH 7.0, 298 K; site size s 3.5 (±0.7); per base
[7] = tested on: (5′-CCGGTACCGG)2 (TA step) (DNA, duplex) CCGGTACCGG; experiment: luminescence titration 750 nm, Bard fit; details: Na+ (20 mM sodium phosphate); 20 mM sodium phosphate pH 7.0, 298 K; s 7.6; caption says luminescence 750 nm, column head 415 nm absorbance; per base

Row | SMILES | Kb ([1]; site size s 3.8 (±0.1)) | Kb ([1]; site size s 5.0 (±0.1)) | Kb ([2]; site size s 4.5 (±0.1)) | Kb ([2]; site size s 6.0 (±0.2)) | Kb ([1]; site size s 4.6 (±0.1)) | Kb ([1]; site size s 7.7 (±0.08)) | Kb ([3]; site size s 4.4 (±0.1)) | Kb ([3]; site size s 5.6 (±0.1)) | Kb [4] | Kb [5] | Kb [6] | Kb [7]
1 | [Os+2].c1ccc2nc3c4cccnc4c4ncccc4c3nc2c1.c1cnc2c(ccc3nccnc32)n1.c1cnc2c(ccc3nccnc32)n1 | 8.5 (±0.5) × 10^6 M^–1 | 1.1 (±0.3) × 10^7 M^–1 | 8.7 (±1.2) × 10^6 M^–1 | 5.1 (±1.6) × 10^6 M^–1 | – | – | – | – | – | – | – | –
2 | [Os+2].c1cnc2c(ccc3nccnc32)n1.c1cnc2c(ccc3nccnc32)n1.c1cnc2nc3c4cccnc4c4ncccc4c3nc2c1 | – | – | – | – | 4.5 (±1.3) × 10^6 M^–1 | 1.4 (±0.4) × 10^7 M^–1 | 2.0 (±0.3) × 10^6 M^–1 | 5.0 (±0.8) × 10^6 M^–1 | 2.2 (±0.4) × 10^6 M^–1 | 1.0 (±0.2) × 10^6 M^–1 | 3.8 (±1.5) × 10^6 M^–1 | 1.4 (±0.3) × 10^6 M^–1

Reference: publication PMC9516684 (2022)
